Laboratory results as given in patent US10232013B2, “Use of an antimicrobial peptide TP4 in treating a cancer” (Academia Sinica, priority 2016, dated 2019).
Marks after values point to notes of the source that are not given here. Where no end group is shown, it is not given here.

Tests used:
[1] = MTS cell viability assay, HDF; type: cell-based; conditions: human, HDF dermal fibroblasts, mean±SD, read-out: Cellular toxicity (cell viability), MTS assay
Description: (§1) Cell-lines used in this study were purchased from the Bioresource Collection and Research Center (BCRC) in and the cells were cultured by the standard cell culture procedures and conditions provided by the BCRC. MB231 (BCRC 60425), MB453 (BCRC 60429), and HDF cells were cultured as previously described by Ting et al. MCF7 […] cells were maintained in α-MEM medium (ThermoFisher Scientific) supplemented with 2 mM L-glutamine, 10% FBS, 0.1 mM non-essential amino acids, 1 mM sodium pyruvate, and antibiotics (100 U mL^−1 penicillin G and […] streptomycin). M10 (BCRC 60197) cells were maintained in α-MEM medium (ThermoFisher Scientific) supplemented with 10% FBS and antibiotics. With the exception of MB231 and MB453, all cells were cultured at 37° C. with 5% CO2. For the cell viability and transfection assay, 1×10^4 cells [5×10^3 M10 cells were seeded and cultured for 48 h to allow the cells sufficient time for attachment] were seeded into the wells of a 96-well plate and cultured overnight. For the transfection assays, cells were transfected with 0.1-0.4 μg FOSB/FOSAB expression plasmid (Origene Technology Inc.) and cell viability was determined after 72 h. The transfection efficiencies (number of cells expressing eGFP/all cells) of the MB231 transfection assays were determined by observing ten randomly selected fields (from three independent transfections) of control GFP plasmid transfections under an inverted microscope (Olympus, IX71) coupled to a digital camera (Olympus DP80), using an […] (LCPlanFI 20×/0.40 Ph1). CellSens standard software (Olympus) was used for image acquisition. During the drug treatment assay, inhibitors (PD98059, BAPTA-AM, and AlP II) were added 30 min prior to TP4, and cell viability was determined at indicated time-points. Transfection was performed using LipofectAMINE™ 3000 (ThermoFisher Scientific), according to the manufacturer's recommendations. Knock-down cells were generated by transducing MB231 cells with pre-synthesized FOSB (or control) shRNA lentiviral particles (Santa Cruz Biotechnology), and selecting puromycin-resistant cells in accordance with the manufacturer's standard protocol. MB231 or M10 cells stably expressing eGFP or mOrange2 were generated through transfection with peGFP-puromycin or pmOrange2-C1 plasmid, followed by puromycin (5 μg mL^−1) or G418 (500 μg mL^−1) selection as described above.
(§2) Cell viability was quantitatively analyzed using the CellTiter-Glo® Luminescent Cell Viability Assay kit (ATP assay) and CellTiter 96® AQueous Non-Radioactive Cell Proliferation Assay kit (MTS assay) (Promega) in accordance with the manufacturer's protocol. For MTS assay, 1×10^4 cells were seeded into the wells of a 96-well plate and cultured overnight [5×10^3 M10 cells were seeded and cultured for 48 h to enable sufficient well attachment]. Cells were subsequently treated with different doses of TP4 (2.5-20 μg mL^−1) and harvested at the indicated time-points (3-24 h). Reaction mixtures (20 μL: MTS+PMS, using a ratio 20:1) were directly added to the cells, and the plates were incubated for 3 h at 37° C. Absorbance at 490 nm is directly proportional to the number of living cells in culture and was measured using a photometer (SpectraMax® i3, Molecular Devices). ATP assay was performed as previously described by Ting et al. Lactate dehydrogenase (LDH) assays were performed by quantitatively measuring cell lysis with a Cytotoxicity Detection Kit^PLUS (LDH) (Roche) in accordance with the manufacturer's protocol. The LDH standard was purchased from Cayman Chemical. Briefly, 1×10^4 cells were seeded into the wells of a 96-well plate and cultured overnight. Culture media were replaced with fresh medium containing 1% FBS and cells were subsequently treated with different doses of TP4 (2.5-20 μg mL^−1). Supernatants were harvested at 3 h. […]

[2] = tested on: MB453 (MDA-MB453) cells; assay: MTS cell viability assay, MB453; type: cell-based, human; conditions: mean±SD
Description: as §1, §2

[3] = tested on: MB231 (MDA-MB231) cells; assay: MTS cell viability assay, MB231; type: cell-based, human; conditions: mean±SD
Description: as §1, §2

Sequence: FIHHIIGGLFSAGKAIHRLIRRRRR [TP4, tilapia piscidin 4]
- viability at 3 h, 2.5 μg/mL ([1]; TP4 2.5 μg/mL, 3 h): 105 ± 6.49%
- viability at 6 h, 2.5 μg/mL ([1]; TP4 2.5 μg/mL, 6 h): 98.6 ± 4.42%
- viability at 12 h, 2.5 μg/mL ([1]; TP4 2.5 μg/mL, 12 h): 100 ± 4.74%
- viability at 24 h, 2.5 μg/mL ([1]; TP4 2.5 μg/mL, 24 h): 97.2 ± 5.62%
- viability at 3 h, 5 μg/mL ([1]; TP4 5.0 μg/mL, 3 h): 103 ± 5.88%
- viability at 6 h, 5 μg/mL ([1]; TP4 5.0 μg/mL, 6 h): 96.8 ± 3.43%
- viability at 12 h, 5 μg/mL ([1]; TP4 5.0 μg/mL, 12 h): 93.8 ± 3.81%
- viability at 24 h, 5 μg/mL ([1]; TP4 5.0 μg/mL, 24 h): 92.7 ± 6.58%
- viability at 3 h, 10 μg/mL ([1]; TP4 10.0 μg/mL, 3 h): 102 ± 9.49%
- viability at 6 h, 10 μg/mL ([1]; TP4 10.0 μg/mL, 6 h): 92.9 ± 2.98%
- viability at 12 h, 10 μg/mL ([1]; TP4 10.0 μg/mL, 12 h): 89.6 ± 3.87%
- viability at 24 h, 10 μg/mL ([1]; TP4 10.0 μg/mL, 24 h): 86.1 ± 9.39%
- viability at 3 h, 15 μg/mL ([1]; TP4 15.0 μg/mL, 3 h): 103 ± 9030%
- viability at 6 h, 15 μg/mL ([1]; TP4 15.0 μg/mL, 6 h): 90.8 ± 6.82%
- viability at 12 h, 15 μg/mL ([1]; TP4 15.0 μg/mL, 12 h): 85.9 ± 4.24%
- viability at 24 h, 15 μg/mL ([1]; TP4 15.0 μg/mL, 24 h): 82.2 ± 11.4%
- viability at 3 h, 20 μg/mL ([1]; TP4 20.0 μg/mL, 3 h): 98.6 ± 13%
- viability at 6 h, 20 μg/mL ([1]; TP4 20.0 μg/mL, 6 h): 81 ± 12.3%
- viability at 12 h, 20 μg/mL ([1]; TP4 20.0 μg/mL, 12 h): 80.5 ± 1.58%
- viability at 24 h, 20 μg/mL ([1]; TP4 20.0 μg/mL, 24 h): 72.2 ± 13.5%
- Cellular toxicity (cell viability), MTS assay ([2]; MB453, TP4 2.5 μg/mL, 3 h): 93.75 ± 4.33^d
- Cellular toxicity (cell viability), MTS assay ([2]; MB453, TP4 2.5 μg/mL, 6 h): 86.51 ± 4.19^d
- Cellular toxicity (cell viability), MTS assay ([2]; MB453, TP4 2.5 μg/mL, 12 h): 92.21 ± 6.61^d
- Cellular toxicity (cell viability), MTS assay ([2]; MB453, TP4 2.5 μg/mL, 24 h): 87.84 ± 4.75^d
- Cellular toxicity (cell viability), MTS assay ([2]; MB453, TP4 5.0 μg/mL, 3 h): 91.50 ± 4.32^d
- Cellular toxicity (cell viability), MTS assay ([2]; MB453, TP4 5.0 μg/mL, 6 h): 76.46 ± 6.25^d
- Cellular toxicity (cell viability), MTS assay ([2]; MB453, TP4 5.0 μg/mL, 12 h): 80.18 ± 5.41^d
- Cellular toxicity (cell viability), MTS assay ([2]; MB453, TP4 5.0 μg/mL, 24 h): 87.00 ± 4.16^d
- Cellular toxicity (cell viability), MTS assay ([2]; MB453, TP4 10.0 μg/mL, 3 h): 77.82 ± 4.33^d
- Cellular toxicity (cell viability), MTS assay ([2]; MB453, TP4 10.0 μg/mL, 6 h): 58.58 ± 5.43^d
- Cellular toxicity (cell viability), MTS assay ([2]; MB453, TP4 10.0 μg/mL, 12 h): 62.25 ± 10.74^d
- Cellular toxicity (cell viability), MTS assay ([2]; MB453, TP4 10.0 μg/mL, 24 h): 77.24 ± 4.07^d
- Cellular toxicity (cell viability), MTS assay ([2]; MB453, TP4 15.0 μg/mL, 3 h): 53.12 ± 10.90^d
- Cellular toxicity (cell viability), MTS assay ([2]; MB453, TP4 15.0 μg/mL, 6 h): 27.09 ± 2.54^d
- Cellular toxicity (cell viability), MTS assay ([2]; MB453, TP4 15.0 μg/mL, 12 h): 27.32 ± 5.51^d
- Cellular toxicity (cell viability), MTS assay ([2]; MB453, TP4 15.0 μg/mL, 24 h): 58.93 ± 2.80^d
- Cellular toxicity (cell viability), MTS assay ([2]; MB453, TP4 20.0 μg/mL, 3 h): 36.33 ± 5067^d
- Cellular toxicity (cell viability), MTS assay ([2]; MB453, TP4 20.0 μg/mL, 6 h): 18.25 ± 1.80^d
- Cellular toxicity (cell viability), MTS assay ([2]; MB453, TP4 20.0 μg/mL, 12 h): 15.02 ± 4.28^d
- Cellular toxicity (cell viability), MTS assay ([2]; MB453, TP4 20.0 μg/mL, 24 h): 40.15 ± 2.66^d
- Cellular toxicity (cell viability), MTS assay ([3]; MB231, TP4 2.5 μg/mL, 3 h): 95.34 ± 5.56^a
- Cellular toxicity (cell viability), MTS assay ([3]; MB231, TP4 2.5 μg/mL, 6 h): 95.93 ± 8.86^a
- Cellular toxicity (cell viability), MTS assay ([3]; MB231, TP4 2.5 μg/mL, 12 h): 87.60 ± 12.28^c
- Cellular toxicity (cell viability), MTS assay ([3]; MB231, TP4 2.5 μg/mL, 24 h): 87.01 ± 9.69^c
- Cellular toxicity (cell viability), MTS assay ([3]; MB231, TP4 5.0 μg/mL, 3 h): 90.55 ± 10.57^a
- Cellular toxicity (cell viability), MTS assay ([3]; MB231, TP4 5.0 μg/mL, 6 h): 82.30 ± 6.40^d
- Cellular toxicity (cell viability), MTS assay ([3]; MB231, TP4 5.0 μg/mL, 12 h): 79.00 ± 9.48^d
- Cellular toxicity (cell viability), MTS assay ([3]; MB231, TP4 5.0 μg/mL, 24 h): 71.69 ± 6.84^d
- Cellular toxicity (cell viability), MTS assay ([3]; MB231, TP4 10.0 μg/mL, 3 h): 75.01 ± 11.29^d
- Cellular toxicity (cell viability), MTS assay ([3]; MB231, TP4 10.0 μg/mL, 6 h): 65.28 ± 6.61^d
- Cellular toxicity (cell viability), MTS assay ([3]; MB231, TP4 10.0 μg/mL, 12 h): 61.63 ± 11.38^d
- Cellular toxicity (cell viability), MTS assay ([3]; MB231, TP4 10.0 μg/mL, 24 h): 57.98 ± 6.62^d
- Cellular toxicity (cell viability), MTS assay ([3]; MB231, TP4 15.0 μg/mL, 3 h): 52.48 ± 11.16^d
- Cellular toxicity (cell viability), MTS assay ([3]; MB231, TP4 15.0 μg/mL, 6 h): 42.59 ± 10.14^d
- Cellular toxicity (cell viability), MTS assay ([3]; MB231, TP4 15.0 μg/mL, 12 h): 38.31 ± 7.26^d
- Cellular toxicity (cell viability), MTS assay ([3]; MB231, TP4 15.0 μg/mL, 24 h): 29.78 ± 4.79^d
- Cellular toxicity (cell viability), MTS assay ([3]; MB231, TP4 20.0 μg/mL, 3 h): 30.57 ± 4.64^d
- Cellular toxicity (cell viability), MTS assay ([3]; MB231, TP4 20.0 μg/mL, 6 h): 26.65 ± 7.16^d
- Cellular toxicity (cell viability), MTS assay ([3]; MB231, TP4 20.0 μg/mL, 12 h): 19.31 ± 5.73^d
- Cellular toxicity (cell viability), MTS assay ([3]; MB231, TP4 20.0 μg/mL, 24 h): 16.19 ± 4.15^d
